This is an account of results in publication PMC11823609, “Advancements in the fight against globally distributed OXA-48 carbapenemase: evaluating the new generation of carbapenemase inhibitors” (Antimicrobial Agents and Chemotherapy, 2025).

For assay [1], the system named is E. coli TG1 and HB4 transformants. Put plainly: MIC summary over E. coli transformants. The class given is cell-based, Escherichia coli. The following applies: for decrease of ertapenem MIC with BLI / effect of ertapenem/BLI on bacterial growth: OXA-48-producing E. coli hosts, BLI 4 mg/L; for MICs of inhibitor alone (range over strains): TG1 and HB4 E. coli. An excerpt: The E. coli HB4 strain was used to gain a more complete perspective, by evaluating the involvement in resistance of a low permeability background with the carbapenemase OXA-48, as well as coproduction of an ESBL and the carbapenemase; thus, the ESBL CTX-M-14 and OXA-48 were cloned together and separately into E. coli HB4. The characteristics of these strains and transformants are summarized in Table S1, and the cloning procedures are outlined in the supplemental methods.
(§1) The MICs of each of the individual compounds (antibiotics or inhibitors) were also determined. The MICs were determined for the E. coli isogenic expressing OXA-48 (and both OXA-48 and CTX-M-14) to assess their activity against the carbapenemase; MICs were also determined for the 18 Enterobacterales clinical isolates in order to evaluate the new inhibitors against also their resistance concomitant mechanisms. The MICs were determined in triplicate experiments, and the EUCAST 13.0 clinical breakpoints were followed (http://www.eucast.org/clinical_breakpoints).
(§2) For comparative evaluation of the activity of each inhibitor alone against the carbapenemase OXA-48, all inhibitors (at 4 mg/L) were tested in the presence of a carbapenem (ertapenem, adequate substrate) and a cephalosporin (ceftazidime, poor substrate) as reporter substrates. This prevented any possible masking effect produced by the different partner antibiotics. These assays were also performed with isogenic transformants and clinical isolates.

The test system of assay [2] is E. coli TG1. Put plainly: microbe, parasite or virus in culture. Particulars: Escherichia coli. The class given is cell-based. The procedure, abridged:
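OXA-48, with or without CTX-M-14, was cloned into E. coli HB4, a low-permeability strain, and TG1 transformants were also used. Each compound was tested alone, then each inhibitor at 4 mg/L with ertapenem or ceftazidime. MICs were read in triplicate against EUCAST 13.0 breakpoints.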

Assay [3] has as its target T1, OXA-48 (Klebsiella pneumoniae, UniProt Q6XEC0). Put plainly: Partition ratio / turnover number (tn), I/E for >90% inhibition. The following applies: 15 min incubation, 500 nM enzyme. Set-up: These primers amplified the blaOXA-48 gene without the signal peptide; GST (glutathione S-transferase, pGEX-6P-1) (N, cleaved yes); made in house; host or cells: E. coli BL21. The format is biochemical. How it is done: (§3) OXA-48 was cloned, produced, and purified following the procedures described in the supplemental methods. The steady-state inhibition constants (Ki app) and kinetics of inhibition (such as k2/K , koff, Kd, and tn) were determined following previously established protocols, are also outlined in the supplemental methods.
The evaluation involved exposure to increasing concentrations of inhibitors plus 500 nM of enzyme, at different molar I/E ratios.

The target of assay [4] is T1, OXA-48. Put plainly: Dissociation rate (koff) by jump dilution; t1/2 and Kd. The format is biochemical. Set-up: These primers amplified the blaOXA-48 gene without the signal peptide; GST (glutathione S-transferase, pGEX-6P-1) (N, cleaved yes); made in house; host or cells: E. coli BL21. Particulars: for residence time: read-out: t1/2 (residence time); for Kd: koff/kon. How it is done: as §3
The dissociation rate constant (koff) was determined using a “jump dilution” method in which OXA-48 enzyme activity was monitored over time as the BLI dissociates. […] Subsequently, the reaction mixture was diluted 10,000-fold dilution in the reaction buffer. […] Absorbance was recorded at 60-s intervals over a 2-h period at RT. The resulting reaction progress curve was fitted to equation 4, which includes the exponential function (6). […] From the fit, GraphPad Prism software, (MA, USA) also calculates the dissociation half-time (t1/2), in min.
koff was obtained directly from the dissociation experiment and kon was previously calculated, thus finally Kd was calculated as the fraction between koff and kon.
P= Vs x t + (V0-Vs) x [1– exp ^(-k^off x ^t)] / koff (4)

Assay [5] has as its system E. coli HB4 ΔompC/F (CTX-M-14). Put plainly: microbe, parasite or virus in culture. The format is cell-based, Escherichia coli.
Assay [6] addresses T1, OXA-48. Put plainly: Steady-state inhibition constant (Ki app), nitrocefin reporter. The class given is biochemical. Also noted: These primers amplified the blaOXA-48 gene without the signal peptide; GST (glutathione S-transferase, pGEX-6P-1) (N, cleaved yes); made in house; host or cells: E. coli BL21. Particulars: nitrocefin 300 µM reporter, 25 °C, pH 7.4. The protocol:
as §3
(§4) Ki app serves as an equilibrium constant, calculable from […] conditions and indicates the formation of the enzyme acyl E-S complex. […] Plotting the inverse initial velocities (1/V0) against inhibitory concentrations ([I]) facilitated fitting the data to a linear equation. The intersection, divided by the slope of the line, was defined as the observed Ki app.
Ki app (corrected)= Ki app (observed) / [ 1+ ([S]/KmNFC)] (2)

Assay [7] relates to OXA-48-producing Enterobacterales clinical isolates. Put plainly: MIC summary over clinical isolates. The class given is cell-based. How it is done: The efficacy of these new BLIs was also evaluated against 18 genetically diverse WGS-characterized collection of OXA-48-positive Enterobacterales recovered as part of the Carbapenem-resistant Enterobacterales Genome Database Project (https://genomes.cnag.cat/incredble) listed in Table S2 ([13]). Combinations of clinical isolates (five pairs of Klebsiella pneumoniae, two pairs of Enterobacter cloacae, and two pairs of E. coli) were chosen for analysis: (i) nine strains carrying ESBLs; and (ii) nine strains (genetically closer available strains) without ESBLs.
as §1, §2

Assay [8] has as its target T1, OXA-48. Put plainly: Inhibition efficiency / onset of acylation (k2/K), nitrocefin reporter. The format is biochemical. Set-up: These primers amplified the blaOXA-48 gene without the signal peptide; GST (glutathione S-transferase, pGEX-6P-1) (N, cleaved yes); made in house; host or cells: E. coli BL21. Particulars: for kinact/KI: pH 7.4, read-out: k2/K, nitrocefin reporter; for k2/K: nitrocefin reporter. The protocol: as §3, §4
k2/K = k2/kobs × [([S]/Km NCF) + 1] (3)

The target of assay [9] is T1, OXA-48. Also noted: These primers amplified the blaOXA-48 gene without the signal peptide; GST (glutathione S-transferase, pGEX-6P-1) (N, cleaved yes); made in house; host or cells: E. coli BL21; method as in earlier work. Particulars: ref 5 Hecker et al.; cited from earlier work.

SMILES strings stand for the structures. Converted amounts (≈) assume the structure as drawn. Read-outs that look alike come from different tables or passages of the source. Bounds are passed on as bounds.

T1 sequence (Q6XEC0 23-265 limits assumed): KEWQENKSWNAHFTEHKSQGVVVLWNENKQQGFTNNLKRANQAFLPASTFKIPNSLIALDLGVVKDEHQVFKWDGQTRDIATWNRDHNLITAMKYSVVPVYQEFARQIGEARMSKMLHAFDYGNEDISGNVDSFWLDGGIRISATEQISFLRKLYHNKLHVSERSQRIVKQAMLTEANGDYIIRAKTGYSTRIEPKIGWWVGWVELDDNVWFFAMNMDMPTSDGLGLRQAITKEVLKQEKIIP

Regarding `NCCN[C@H]1CC[C@H](CC(=O)N[C@H]2Cc3cccc(C(=O)O)c3OB2O)CC1` [Taniborbactam, taniborbactam], the “decrease of ertapenem MIC with BLI” value in [1] was 8–256 fold. The MIC in assay [2] (β-lactamase inhibitor alone) and in assay [5] (Escherichia coli) was ≥ 128 µg/mL each time. In addition, the “tn (partition ratio, I:E)” value in assay [3] was 200. Further, the koff (as a rule, a measure of how fast the partners let go of each other) in assay [4] (jump dilution, read-out: koff) came to 0.00023 s⁻¹. Besides, in assay [4], the residence time turned out to be 50.2 ± 8.2 min. In addition, the Ki in assay [6] is 75 ± 15 nM. In addition, the “reduction of cefepime MICs by BLI” value in assay [7] (clinical isolates) was 2–512 fold.
In the case of `CC(C)(O/N=C(\C(=O)N[C@@H]1C(=O)N2C(C(=O)[O-])=C(C[n+]3ccccc3)CS[C@H]12)c1csc(N)n1)C(=O)O` [CAZ, ceftazidime], the MIC in assay [2] (BL alone or BL/BLI: AVI, REL, TAN, DUR 4 mg/L, VAB, XER 8 mg/L, ZID, NAC 1:1) turned out to be 0.25 µg/mL (≈ 0.457 µM); in assay [2] (ceftazidime alone or with BLI at 4 mg/L) it was 0.12 µg/mL (≈ 0.22 µM); in assay [5] (E. coli HB4 ΔompC/F (CTX-M-14), ceftazidime alone or with BLI at 4 mg/L) it was 16 µg/mL (≈ 29.3 µM); in [5] (Escherichia coli), 16 µg/mL (≈ 29.3 µM).
With `NCCONC(=O)[C@@H]1CC[C@@H]2CN1C(=O)N2OS(=O)(=O)O` [Nacubactam, nacubactam], in [1], the “effect of ertapenem/BLI on bacterial growth” value is reported as “totally inhibited bacterial growth” and the “MICs of inhibitor alone (range over strains)” value was in the range of 0.12 to 2 mg/L. Besides, the MIC in assay [2] (β-lactamase inhibitor alone) was determined as 2 µg/mL (≈ 6.17 µM). In assay [3], the “tn (partition ratio, I:E)” value is recorded as 70. In assay [4] (jump dilution, read-out: koff), the koff came out at 0.0002 s⁻¹. In [4], the Kd (commonly the free concentration of one partner at which half of the binding sites on the other are occupied at equilibrium, for simple one-to-one binding) amounted to 41000 nM and the residence time came out at 57.7 ± 7.5 min. For the same compound, the kinact/KI in assay [8] came out at 4.88 ± 2.11 M⁻¹ s⁻¹. Further, the MIC in assay [5] (Escherichia coli) came to 2 µg/mL (≈ 6.17 µM). For the same compound, the Ki in [6] is > 800000 nM. Further, the “decrease of meropenem MIC by BLI” value in assay [7] (clinical isolates) is recorded as 0–32 fold.
On to `CC1=C[C@@H]2CN(C(=O)N2OS(=O)(=O)O)[C@@H]1C(N)=O` [Durlobactam, durlobactam], for which, in [1], the “effect of ertapenem/BLI on bacterial growth” value was “totally inhibited bacterial growth” and the “MICs of inhibitor alone (range over strains)” value fell in the range of 0.12 to 2 mg/L. The MIC in assay [2] (β-lactamase inhibitor alone) was 0.12 µg/mL (≈ 0.433 µM). The “tn (partition ratio, I:E)” value in assay [3] was found to be 1. In addition, in assay [4] (jump dilution, read-out: koff), the koff was 9.5e-06 s⁻¹. Further, in assay [4], the affinity, expressed as Kd, was 0.07 ± 0.01 nM and the residence time was found to be 1220 ± 213 min. In assay [8], the k2/K is 142000 ± 38000 M⁻¹ s⁻¹ and the kinact/KI is 140000 M⁻¹ s⁻¹. In [5] (Escherichia coli), this compound had an MIC of 1 µg/mL (≈ 3.61 µM). In assay [6], the Ki is 103 ± 24 nM. Besides, in [7] (18 clinical isolates), the “MIC of inhibitor alone (range over isolates)” value lay in the range of 0.25 to 4 µg/mL.
In the case of `O=C(O)C[C@@H]1CC[C@H](NC(=O)Cc2cccs2)B(O)O1` [Vaborbactam, vaborbactam], in [2] (β-lactamase inhibitor alone), the MIC is ≥ 128 µg/mL. In [3], the “tn (partition ratio, I:E)” value is on record as >3,000. For the same compound, in assay [4], the dissociation rate constant (koff) is 2.6 × 10^−4 ± .5 10^−4 s^−1 and the residence time came to 44.4 ± 1.6 min. Besides, the MIC in assay [5] (Escherichia coli) was ≥ 128 µg/mL. In [6], the Ki stood at 43600 nM.
In the case of `O=C(O)c1c(F)ccc2c1OB(O)[C@@H]1C[C@H]21` [Xeruborbactam, xeruborbactam], the “decrease of ertapenem MIC with BLI” value in [1] is 8–256 fold. Further, in assay [9], the “higher inhibitory activity (Ki) for OXA-48 than avibactam” value is 96 fold and the “higher inhibitory activity (Ki) for OXA-48 than vaborbactam” value was 50,000 fold. The compound also yielded an MIC in assay [2] (β-lactamase inhibitor alone) of 32 µg/mL (≈ 144 µM). Also, in [3], the “tn (partition ratio, I:E)” value stood at 1. Further, the koff in assay [4] (jump dilution, read-out: koff) is 0.0002 s⁻¹. Also, in [4], the Kd came out at 0.63 nM and the residence time stood at 57.7 ± 9.6 min. In [8], the k2/K was 310000 M⁻¹ s⁻¹ and the kinact/KI was determined as 313000 M⁻¹ s⁻¹. For the same compound, the MIC in assay [5] (Escherichia coli) is 16 µg/mL (≈ 72.1 µM). Also, the Ki in [6] stood at 18 ± 2 nM.
